# From paper PMC3478417 (Nuclear medicine and biology, 2012)
# Key:
# [1] = PET imaging of [11C]rhodamine-123 in rats; format: in vivo, rat
# [2] = cited from earlier work
# P-gp = conditions: mouse, not told, iv; cited from earlier work
# [3] = mouse; cited from earlier work
smiles,measurement,setting,value
CN/C(=N/CCSCc1nc[nH]c1C)NC#N [cimetidine],inhibition of OCT in kidney in vivo,"[1]; 30 mg/kg i.v., 30 min before radiotracer, rats",effective inhibitor of OCT in vivo
"CNC(=O)C(CCN1CCC(O)(c2ccc(Cl)cc2)CC1)(c1ccccc1)c1ccccc1 [dLop, desmethyl-loperamide]",logD,[2],2.60
same,pKa,[2],7.2–7.3
COC(=O)c1ccccc1-c1c2ccc(=N)cc-2oc2cc(N)ccc12.Cl [rhodamine-123],peak radioactivity in liver (PET),[1]; DCPQ-pretreated versus untreated rats,greater peak radioactivity in liver
same,"brain concentration, P-gp knockout (mdr1a(−/−)) versus wild-type mice",P-gp,about 4 fold
same,Plasma free fraction,[3],0.23 ± 0.04
